# According to ChEMBL document CHEMBL1201862, “PubChem BioAssay data set” (2004):
# Active and inactive are the calls of the source.
# Legend:
# HEK293 [1] = experiment: cells; assay type: functional, cell-based; conditions: Homo sapiens
# HEK293 [2] = experiment: NOD2 signaling inhibitors in MDP-stimulated cells, cell-based, uHTS, luminescence (AID 2001); assay type: functional; conditions: Homo sapiens
# [3] = target: T1, High affinity choline transporter 1 (Homo sapiens, UniProt Q9GZV3); experiment: human choline transporter blockers, potency – cell-based, 5-point CRC, membrane potential dye, dose response (AID 504840); assay type: functional
# T1 sequence (Q9GZV3 whole entry): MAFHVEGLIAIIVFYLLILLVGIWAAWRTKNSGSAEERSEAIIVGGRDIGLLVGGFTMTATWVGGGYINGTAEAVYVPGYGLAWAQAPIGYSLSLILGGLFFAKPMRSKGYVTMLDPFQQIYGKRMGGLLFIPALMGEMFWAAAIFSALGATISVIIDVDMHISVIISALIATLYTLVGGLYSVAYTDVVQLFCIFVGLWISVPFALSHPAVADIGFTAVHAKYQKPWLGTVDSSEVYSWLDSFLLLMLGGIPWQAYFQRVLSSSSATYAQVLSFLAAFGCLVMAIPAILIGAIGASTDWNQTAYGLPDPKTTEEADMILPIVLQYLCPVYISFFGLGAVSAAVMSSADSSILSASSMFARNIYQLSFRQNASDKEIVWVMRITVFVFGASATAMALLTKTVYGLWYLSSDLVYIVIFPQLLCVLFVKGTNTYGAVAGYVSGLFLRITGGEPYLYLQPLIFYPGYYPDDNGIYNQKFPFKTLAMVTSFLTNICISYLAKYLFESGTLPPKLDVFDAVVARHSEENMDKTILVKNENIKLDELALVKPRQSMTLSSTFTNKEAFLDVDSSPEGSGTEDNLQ
# Vero = experiment: viability of Vero cells under compound – cytotoxicity control for flavivirus capping enzyme inhibitors (AID 588742); assay type: functional; conditions: Chlorocebus sabaeus
# HEK293 [4] = experiment: cells; assay type: functional, cell-based; conditions: Homo sapiens; remark: listed apart in the source
# HEK293 [5] = experiment: inhibition of NOD1-driven NF-kB reporter – cell-based, luminescence, uHTS, primary screen (AID 1578); assay type: functional; conditions: Homo sapiens
# Cytochrome P450 3A4 = Cytochrome P450 3A4 (Homo sapiens, UniProt P08684);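 also: CYP3A4 tested as one member of a cytochrome P450 panel screen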
# [6] = target: T2, Type-1 angiotensin II receptor (Homo sapiens, UniProt P30556); experiment: antagonism of angiotensin II type 1 receptor – cell-based, uHTS hits, selectivity assay for APJ receptor antagonist project, dose response (AID 463214); assay type: functional;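 also: antagonist potency against angiotensin II stimulated AT1 response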
# T2 sequence (P30556 whole entry): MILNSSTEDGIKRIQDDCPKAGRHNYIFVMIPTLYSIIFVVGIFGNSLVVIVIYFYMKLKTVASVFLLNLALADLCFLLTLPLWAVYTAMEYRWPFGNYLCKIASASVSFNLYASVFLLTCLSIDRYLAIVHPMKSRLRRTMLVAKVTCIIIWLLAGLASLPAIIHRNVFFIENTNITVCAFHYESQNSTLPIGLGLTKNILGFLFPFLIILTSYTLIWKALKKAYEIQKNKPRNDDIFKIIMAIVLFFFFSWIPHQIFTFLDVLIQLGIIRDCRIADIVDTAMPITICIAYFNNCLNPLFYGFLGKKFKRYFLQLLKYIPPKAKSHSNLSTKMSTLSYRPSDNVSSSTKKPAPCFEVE
# CHO = CHO cell viability loss, potency – luminescence, cytotoxicity control for TLR9-MyD88 binding inhibitor project, dose response (AID 588339); assay type: functional, cell-based, hamster; conditions: Cricetulus griseus;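 also: CHO cells stably coexpressing TLR9 and MyD88 fusions from primary screen; compound exposure lasted 48 hours before viability readout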
# [7] = target: T3, Replicative DNA helicase DnaB (Mycobacterium tuberculosis, UniProt P9WMR3); experiment: DnaB intein splicing inhibitors, dose response, biochemical, cell-free fluorescence (AID 449749); assay type: functional
# T3 sequence (P9WMR3 whole entry): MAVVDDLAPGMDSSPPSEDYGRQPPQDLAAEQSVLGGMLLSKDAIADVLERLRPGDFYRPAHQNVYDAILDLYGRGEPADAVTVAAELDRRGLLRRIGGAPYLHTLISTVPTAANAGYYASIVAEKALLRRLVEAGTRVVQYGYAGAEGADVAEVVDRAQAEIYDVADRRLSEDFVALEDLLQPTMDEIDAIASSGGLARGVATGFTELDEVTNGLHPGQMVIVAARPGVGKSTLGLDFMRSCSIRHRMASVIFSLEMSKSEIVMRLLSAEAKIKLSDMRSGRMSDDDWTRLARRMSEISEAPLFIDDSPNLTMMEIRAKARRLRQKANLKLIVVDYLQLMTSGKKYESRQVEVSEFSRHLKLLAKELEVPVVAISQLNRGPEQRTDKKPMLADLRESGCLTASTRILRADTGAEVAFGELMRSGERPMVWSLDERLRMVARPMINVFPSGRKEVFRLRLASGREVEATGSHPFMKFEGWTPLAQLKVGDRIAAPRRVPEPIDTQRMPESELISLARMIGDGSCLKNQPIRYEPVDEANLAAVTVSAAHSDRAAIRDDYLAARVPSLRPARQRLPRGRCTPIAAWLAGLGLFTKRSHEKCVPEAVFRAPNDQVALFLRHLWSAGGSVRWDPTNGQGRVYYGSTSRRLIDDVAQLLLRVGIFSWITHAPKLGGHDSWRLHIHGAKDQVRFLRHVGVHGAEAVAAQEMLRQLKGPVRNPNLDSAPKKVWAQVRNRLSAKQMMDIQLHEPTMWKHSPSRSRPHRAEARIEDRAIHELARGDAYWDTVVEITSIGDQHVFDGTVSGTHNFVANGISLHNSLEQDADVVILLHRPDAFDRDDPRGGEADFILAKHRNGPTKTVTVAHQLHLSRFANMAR
# BJ [8] = experiment: BJ-TERT fibroblast viability loss – cell-based, RAS-independent, luminescence, dose response (AID 1933); assay type: functional; conditions: Homo sapiens
# [9] = reduction of Shn3 3'UTR-driven luciferase in osteoblasts – cell-based, Clone20 osteoblasts, firefly luciferase, cherry-picked, dose response (AID 624132); assay type: functional;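 also: firefly luciferase luminescence from reporter carrying the Shn3 3'UTR in osteoblasts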
# BJ [10] = experiment: cells; assay type: functional, cell-based; conditions: Homo sapiens
# Beta Lactamase = Beta Lactamase (Pseudomonas aeruginosa, UniProt Q932Y6); experiment: BLA reporter interference, concentration series – BLA reporter cells, FRET fluorescence, artefact control for TLR9-MyD88 binding inhibitor project, dose response (AID 588341); assay type: cell-based;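 also: cell based assay in CHO-K1 cells stably expressing beta-lactamase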
# [11] = target: T4, Sentrin-specific protease 8 (Homo sapiens, UniProt Q96LD8); assay type: functional
# T4 sequence (Q96LD8 whole entry): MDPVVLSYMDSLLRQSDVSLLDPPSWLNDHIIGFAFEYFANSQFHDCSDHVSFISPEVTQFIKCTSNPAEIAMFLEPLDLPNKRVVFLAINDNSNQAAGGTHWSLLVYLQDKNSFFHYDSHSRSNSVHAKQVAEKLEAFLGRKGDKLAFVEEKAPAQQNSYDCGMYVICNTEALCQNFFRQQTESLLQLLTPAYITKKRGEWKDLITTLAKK
# [12] = Luminescence Cell-Based Dose Retest to Confirm Inhibitors of Cancer Stem Cells. [Related pubchem assays (depositor defined):AID2717, AID2721]; assay type: functional; conditions: Homo sapiens
# [13] = target: Glucose-6-phosphate 1-dehydrogenase (Homo sapiens, UniProt P11413); experiment: inhibition of Homo sapiens G6PD, dose series – biochemical, fluorescence, selectivity assay for P. falciparum G6PD inhibitor project, dose response (AID 504792); assay type: functional
# BJ [14] = experiment: BJ-TERT-LT-ST fibroblast viability loss – cell-based, RAS-independent, luminescence, dose response (AID 1935); assay type: functional; conditions: Homo sapiens;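 also: BJ fibroblasts immortalized with TERT plus LT and ST oncogenes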
# [15] = DRD fibroblast viability loss – cell-based, non-viral oncogenic, luminescence, dose response (AID 1934); assay type: functional; conditions: Homo sapiens
# Fatty acid synthase [16] = target: T5, Fatty acid synthase (Homo sapiens, UniProt P49327); experiment: inhibition of human FAS-TE enzyme activity – biochemical, kinetic fluorescence intensity, dose response (AID 624326); assay type: functional;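 also: rate of fluorescence rise from hydrolysis of a fluorogenic O-methyl fluorescein ester substrate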
# Cytochrome P450 2D6 = Cytochrome P450 2D6 (Homo sapiens, UniProt P10635);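 also: CYP2D6 member of a cytochrome P450 panel assay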
# [17] = loss of viability in HepG2 cells – cell-based, CellTiter-Glo, cherry-picked, cytotoxicity control for Shn3 inhibitor project, dose response (AID 624134); assay type: functional
# [18] = non-specific 3'UTR reporter inhibition in Clone20-Shn3RL – cell-based, Renilla luciferase, cherry-picked, counter-screen for Shn3 inhibitor project, dose response (AID 624133); assay type: functional
# [19] = target: T4, Sentrin-specific protease 8; assay type: functional; remark: listed apart in the source
# Protein RecA = target: T6, Protein RecA (Mycobacterium tuberculosis, UniProt P9WHJ3); experiment: Fluorescence Cell-Free Homogeneous Dose Retest to Identify Inhibitors of RecA-Intein Splicing Activity. [Related pubchem assays (depositor defined):AID2097, AID2223, AID489010, AID492950]; assay type: functional
# T6 sequence (P9WHJ3 whole entry): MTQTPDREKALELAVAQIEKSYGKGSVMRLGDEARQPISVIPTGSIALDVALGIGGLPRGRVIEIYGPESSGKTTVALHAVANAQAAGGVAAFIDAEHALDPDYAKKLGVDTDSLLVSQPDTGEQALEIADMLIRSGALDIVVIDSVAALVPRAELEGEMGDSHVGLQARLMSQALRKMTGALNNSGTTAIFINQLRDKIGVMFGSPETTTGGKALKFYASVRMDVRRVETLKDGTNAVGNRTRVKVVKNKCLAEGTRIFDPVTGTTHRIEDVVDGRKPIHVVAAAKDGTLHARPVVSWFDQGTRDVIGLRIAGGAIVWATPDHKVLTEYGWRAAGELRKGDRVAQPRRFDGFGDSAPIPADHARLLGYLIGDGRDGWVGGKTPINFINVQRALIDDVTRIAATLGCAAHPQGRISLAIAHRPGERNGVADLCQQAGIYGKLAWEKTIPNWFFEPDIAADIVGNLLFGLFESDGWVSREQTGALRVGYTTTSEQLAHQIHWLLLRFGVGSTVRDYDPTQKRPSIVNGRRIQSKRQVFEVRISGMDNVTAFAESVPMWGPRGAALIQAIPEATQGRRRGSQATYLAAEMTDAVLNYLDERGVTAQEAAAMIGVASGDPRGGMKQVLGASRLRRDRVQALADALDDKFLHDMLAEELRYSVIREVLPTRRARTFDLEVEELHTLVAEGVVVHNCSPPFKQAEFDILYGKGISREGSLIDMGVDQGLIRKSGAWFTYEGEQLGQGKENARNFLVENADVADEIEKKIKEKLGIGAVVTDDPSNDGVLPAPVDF
# Beta-galactosidase = Beta-galactosidase (Escherichia coli, UniProt Q8VNN2); experiment: PubChem AID 485352; assay type: functional
# Fatty acid synthase [20] = target: T5, Fatty acid synthase; experiment: inhibition of human FAS-TE enzyme activity – biochemical, endpoint fluorescence intensity, uHTS hits, dose response (AID 624327); assay type: functional;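 also: fluorescence from hydrolysis of an O-methyl fluorescein acyl ester substrate by the enzyme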
# [21] = viability loss in THP-1 monocytes – THP-1 cells, cytotoxicity control for Vif-APOBEC3G degradation inhibitor project, dose response (AID 1117359); assay type: functional; conditions: THP-1
# [22] = target: Dual specificity tyrosine-phosphorylation-regulated kinase 1A (Rattus norvegicus, UniProt Q63470); assay type: biochemical, Homo sapiens
# [23] = target: T7, Heat shock factor protein 1 (Mus musculus, UniProt P38532); experiment: enhancement of HSF1-driven luciferase signal – cell-based, NIH3T3, luminescence, dose retest, confirmation (AID 435004); assay type: functional;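 also: stress induced by proteasome inhibitor MG132 added 30 min after compound; luciferase reporter driven by HSF1 response element in NIH3T3 cells; actives raise luminescence as potentiators of the MG132 stress response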
# T7 sequence (P38532 whole entry): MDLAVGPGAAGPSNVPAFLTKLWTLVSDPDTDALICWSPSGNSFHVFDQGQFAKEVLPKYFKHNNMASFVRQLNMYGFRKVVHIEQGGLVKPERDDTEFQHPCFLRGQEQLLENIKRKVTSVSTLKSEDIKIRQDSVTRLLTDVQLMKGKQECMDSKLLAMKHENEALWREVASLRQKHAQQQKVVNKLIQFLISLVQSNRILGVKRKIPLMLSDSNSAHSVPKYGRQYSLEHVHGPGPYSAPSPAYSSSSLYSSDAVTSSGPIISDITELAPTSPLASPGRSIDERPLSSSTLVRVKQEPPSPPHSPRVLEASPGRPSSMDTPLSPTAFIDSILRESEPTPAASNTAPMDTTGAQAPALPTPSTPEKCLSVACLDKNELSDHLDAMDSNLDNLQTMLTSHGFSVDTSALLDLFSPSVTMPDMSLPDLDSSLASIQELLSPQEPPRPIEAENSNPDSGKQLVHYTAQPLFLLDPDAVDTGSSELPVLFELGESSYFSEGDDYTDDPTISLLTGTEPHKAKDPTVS
# T5 sequence (P49327 whole entry): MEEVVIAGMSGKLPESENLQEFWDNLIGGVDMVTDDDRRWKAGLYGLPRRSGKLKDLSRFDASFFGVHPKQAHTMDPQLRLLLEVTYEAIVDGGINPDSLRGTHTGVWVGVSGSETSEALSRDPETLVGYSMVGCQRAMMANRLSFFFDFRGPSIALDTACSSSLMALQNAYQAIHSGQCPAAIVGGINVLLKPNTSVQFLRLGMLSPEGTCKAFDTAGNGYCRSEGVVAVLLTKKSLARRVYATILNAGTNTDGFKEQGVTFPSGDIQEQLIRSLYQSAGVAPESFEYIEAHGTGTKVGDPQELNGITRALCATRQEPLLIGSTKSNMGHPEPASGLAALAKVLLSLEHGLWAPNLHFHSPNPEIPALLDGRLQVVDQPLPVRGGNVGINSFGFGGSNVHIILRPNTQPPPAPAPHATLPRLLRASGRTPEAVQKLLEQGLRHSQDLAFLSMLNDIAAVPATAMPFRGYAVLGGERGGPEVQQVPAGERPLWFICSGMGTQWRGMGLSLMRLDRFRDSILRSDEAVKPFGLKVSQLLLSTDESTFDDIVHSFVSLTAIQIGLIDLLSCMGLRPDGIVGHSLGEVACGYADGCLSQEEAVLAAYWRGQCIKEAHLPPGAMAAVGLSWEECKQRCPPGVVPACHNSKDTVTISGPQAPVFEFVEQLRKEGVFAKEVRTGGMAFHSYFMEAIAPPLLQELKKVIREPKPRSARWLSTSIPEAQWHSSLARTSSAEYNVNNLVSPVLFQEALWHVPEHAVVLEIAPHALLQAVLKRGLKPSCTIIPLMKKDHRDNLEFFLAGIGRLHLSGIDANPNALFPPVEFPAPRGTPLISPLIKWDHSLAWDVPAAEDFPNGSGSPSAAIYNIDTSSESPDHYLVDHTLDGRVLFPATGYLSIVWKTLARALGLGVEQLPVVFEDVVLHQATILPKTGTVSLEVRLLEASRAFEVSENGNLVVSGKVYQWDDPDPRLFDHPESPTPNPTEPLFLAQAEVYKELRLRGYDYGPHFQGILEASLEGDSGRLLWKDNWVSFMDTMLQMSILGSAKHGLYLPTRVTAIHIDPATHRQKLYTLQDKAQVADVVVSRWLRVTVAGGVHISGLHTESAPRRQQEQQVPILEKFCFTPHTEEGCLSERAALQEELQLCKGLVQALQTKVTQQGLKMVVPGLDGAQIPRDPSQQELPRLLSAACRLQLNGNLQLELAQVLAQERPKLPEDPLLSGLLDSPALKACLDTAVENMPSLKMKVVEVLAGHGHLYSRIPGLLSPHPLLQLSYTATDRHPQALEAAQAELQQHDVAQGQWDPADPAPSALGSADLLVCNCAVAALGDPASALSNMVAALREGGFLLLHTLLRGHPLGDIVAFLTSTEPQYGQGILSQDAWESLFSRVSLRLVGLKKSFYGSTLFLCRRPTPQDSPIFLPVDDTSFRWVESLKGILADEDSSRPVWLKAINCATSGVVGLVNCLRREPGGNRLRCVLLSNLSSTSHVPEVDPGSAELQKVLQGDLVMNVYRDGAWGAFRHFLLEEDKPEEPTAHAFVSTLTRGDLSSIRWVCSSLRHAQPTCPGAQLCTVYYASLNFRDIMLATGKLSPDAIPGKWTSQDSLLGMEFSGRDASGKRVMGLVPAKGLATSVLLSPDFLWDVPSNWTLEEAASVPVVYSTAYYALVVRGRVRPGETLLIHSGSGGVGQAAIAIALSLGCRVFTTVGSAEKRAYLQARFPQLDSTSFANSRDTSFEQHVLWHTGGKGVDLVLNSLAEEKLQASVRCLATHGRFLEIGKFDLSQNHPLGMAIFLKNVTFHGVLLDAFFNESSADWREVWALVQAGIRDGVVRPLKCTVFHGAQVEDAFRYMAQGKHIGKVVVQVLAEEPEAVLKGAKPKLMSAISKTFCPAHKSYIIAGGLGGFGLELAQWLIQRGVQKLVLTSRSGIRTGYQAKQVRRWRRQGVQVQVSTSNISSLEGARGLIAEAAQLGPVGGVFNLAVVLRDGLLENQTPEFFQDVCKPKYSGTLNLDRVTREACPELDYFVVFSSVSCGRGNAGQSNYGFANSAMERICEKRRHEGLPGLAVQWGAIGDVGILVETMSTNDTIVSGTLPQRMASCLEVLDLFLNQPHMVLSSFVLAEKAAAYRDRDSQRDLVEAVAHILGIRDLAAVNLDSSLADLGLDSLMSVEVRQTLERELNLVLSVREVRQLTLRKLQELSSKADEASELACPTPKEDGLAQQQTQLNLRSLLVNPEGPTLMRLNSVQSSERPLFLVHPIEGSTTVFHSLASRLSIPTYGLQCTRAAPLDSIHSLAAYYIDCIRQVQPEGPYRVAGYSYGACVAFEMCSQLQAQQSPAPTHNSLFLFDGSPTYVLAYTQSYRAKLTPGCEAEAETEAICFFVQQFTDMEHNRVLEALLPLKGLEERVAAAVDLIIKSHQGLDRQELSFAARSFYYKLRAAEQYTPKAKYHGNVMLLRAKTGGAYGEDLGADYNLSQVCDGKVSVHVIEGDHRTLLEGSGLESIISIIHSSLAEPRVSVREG
# Chain of Cytochrome P450 2D6 (P10635 whole entry): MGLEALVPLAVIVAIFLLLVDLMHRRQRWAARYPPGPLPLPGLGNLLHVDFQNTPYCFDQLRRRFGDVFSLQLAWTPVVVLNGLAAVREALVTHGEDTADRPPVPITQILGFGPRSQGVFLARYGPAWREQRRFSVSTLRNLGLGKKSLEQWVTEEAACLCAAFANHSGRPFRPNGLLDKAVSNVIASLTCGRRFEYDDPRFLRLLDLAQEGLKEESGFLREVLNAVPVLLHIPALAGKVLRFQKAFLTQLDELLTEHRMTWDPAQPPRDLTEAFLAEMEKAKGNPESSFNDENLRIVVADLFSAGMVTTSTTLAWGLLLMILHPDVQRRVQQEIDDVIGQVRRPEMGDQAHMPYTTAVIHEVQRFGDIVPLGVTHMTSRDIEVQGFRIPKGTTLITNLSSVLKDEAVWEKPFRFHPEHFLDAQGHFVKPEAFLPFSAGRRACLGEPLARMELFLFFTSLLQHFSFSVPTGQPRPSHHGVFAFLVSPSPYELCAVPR
# Chain of Beta-galactosidase (Q8VNN2 whole entry): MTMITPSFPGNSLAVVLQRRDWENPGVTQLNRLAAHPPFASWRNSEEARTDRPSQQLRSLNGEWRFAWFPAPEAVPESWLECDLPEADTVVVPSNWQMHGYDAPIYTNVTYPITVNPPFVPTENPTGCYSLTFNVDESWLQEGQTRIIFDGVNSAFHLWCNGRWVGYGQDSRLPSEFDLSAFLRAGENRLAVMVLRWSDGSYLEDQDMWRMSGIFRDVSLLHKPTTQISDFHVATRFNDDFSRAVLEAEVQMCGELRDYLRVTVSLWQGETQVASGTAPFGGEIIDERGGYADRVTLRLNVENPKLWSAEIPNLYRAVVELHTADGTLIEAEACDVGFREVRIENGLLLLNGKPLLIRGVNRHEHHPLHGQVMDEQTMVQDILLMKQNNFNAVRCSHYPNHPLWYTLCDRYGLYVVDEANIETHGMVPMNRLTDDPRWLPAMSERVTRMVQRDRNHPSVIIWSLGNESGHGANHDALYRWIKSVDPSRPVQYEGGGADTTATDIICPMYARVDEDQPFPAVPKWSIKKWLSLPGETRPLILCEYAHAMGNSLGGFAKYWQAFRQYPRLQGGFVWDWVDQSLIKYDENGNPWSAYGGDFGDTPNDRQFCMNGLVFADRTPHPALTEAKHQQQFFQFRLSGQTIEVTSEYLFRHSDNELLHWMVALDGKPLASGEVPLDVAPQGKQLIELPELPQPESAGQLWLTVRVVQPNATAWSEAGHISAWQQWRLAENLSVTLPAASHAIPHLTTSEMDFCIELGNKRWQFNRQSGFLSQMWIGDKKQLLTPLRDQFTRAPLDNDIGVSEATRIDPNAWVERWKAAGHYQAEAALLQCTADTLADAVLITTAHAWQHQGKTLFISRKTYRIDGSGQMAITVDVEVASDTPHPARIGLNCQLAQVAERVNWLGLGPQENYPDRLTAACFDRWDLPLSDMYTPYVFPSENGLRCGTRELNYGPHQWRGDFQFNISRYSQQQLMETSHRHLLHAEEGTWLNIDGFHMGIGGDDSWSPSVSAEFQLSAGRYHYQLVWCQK
# Chain of Glucose-6-phosphate 1-dehydrogenase (P11413 whole entry): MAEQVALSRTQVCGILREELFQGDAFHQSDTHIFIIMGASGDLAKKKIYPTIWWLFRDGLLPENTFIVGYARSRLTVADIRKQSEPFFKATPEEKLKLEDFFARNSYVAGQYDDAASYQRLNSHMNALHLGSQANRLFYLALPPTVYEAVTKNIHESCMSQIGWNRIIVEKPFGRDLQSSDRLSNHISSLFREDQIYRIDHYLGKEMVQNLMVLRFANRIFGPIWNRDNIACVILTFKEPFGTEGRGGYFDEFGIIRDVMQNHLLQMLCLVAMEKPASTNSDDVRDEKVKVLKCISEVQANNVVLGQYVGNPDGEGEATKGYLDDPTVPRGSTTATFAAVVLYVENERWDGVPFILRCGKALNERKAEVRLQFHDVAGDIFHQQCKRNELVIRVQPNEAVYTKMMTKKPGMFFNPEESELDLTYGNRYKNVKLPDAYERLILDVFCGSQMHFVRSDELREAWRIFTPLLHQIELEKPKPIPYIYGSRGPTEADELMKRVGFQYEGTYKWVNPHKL
# Chain of Cytochrome P450 3A4 (P08684 whole entry): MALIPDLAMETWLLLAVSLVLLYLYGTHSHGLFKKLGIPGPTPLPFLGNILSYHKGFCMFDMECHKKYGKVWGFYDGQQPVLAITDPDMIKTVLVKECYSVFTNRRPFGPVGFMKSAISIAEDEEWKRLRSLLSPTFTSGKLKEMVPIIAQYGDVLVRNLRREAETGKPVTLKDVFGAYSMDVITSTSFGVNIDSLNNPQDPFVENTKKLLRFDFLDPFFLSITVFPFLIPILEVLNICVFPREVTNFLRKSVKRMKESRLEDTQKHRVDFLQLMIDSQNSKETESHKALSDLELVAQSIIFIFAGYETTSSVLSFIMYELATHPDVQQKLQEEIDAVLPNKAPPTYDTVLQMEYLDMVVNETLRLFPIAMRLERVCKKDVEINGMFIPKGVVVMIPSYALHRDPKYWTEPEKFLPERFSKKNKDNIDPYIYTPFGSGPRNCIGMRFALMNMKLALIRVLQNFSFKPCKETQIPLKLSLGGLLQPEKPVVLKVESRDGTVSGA
smiles,measurement,setting,value
Cc1ccccc1N1C(=O)NC(=O)/C(=C\c2c(-c3ccccc3)[nH]c3ccccc23)C1=O,IC50,HEK293 [1],> 20 µM (inactive)
same,IC50,HEK293 [2],15.4 µM (inactive)
same,IC50,[3],11 µM (active)
same,CC50,Vero,23.2 µM (active)
same,IC50,HEK293 [4],8.69 µM (active)
same,EC50,HEK293 [5],6.37 µM (active)
CN(CCO)c1cc(Sc2nc3ccccc3s2)c2nonc2c1[N+](=O)[O-],AC50,Cytochrome P450 3A4,22.4 µM (inconclusive)
same,IC50,[6],2.08 µM (active)
same,IC50,CHO,1.69 µM (active)
same,AC50,[7],1.26 µM (active)
same,EC50,BJ [8],1.96 µM (active)
same,AC50,[9],1.55 µM (active)
same,EC50,BJ [10],4.12 µM (active)
same,IC50,Beta Lactamase,8.89 µM (active)
same,IC50,[11],28.1 µM (active)
same,AC50,[12],1.62 µM (active)
same,IC50,[13],> 80 µM (inactive)
same,EC50,BJ [14],4.95 µM (inconclusive)
same,EC50,[15],5.92 µM (active)
same,IC50,Fatty acid synthase [16],2.14 µM (active)
same,AC50,Cytochrome P450 2D6,22.4 µM (inconclusive)
same,AC50,[17],29.3 µM (active)
same,AC50,[18],8.18 µM (active)
same,IC50,[19],18.8 µM (active)
same,EC50,Protein RecA,0.49 µM (active)
same,EC50,Beta-galactosidase,> 40 µM (inactive)
same,IC50,Fatty acid synthase [20],2.32 µM (active)
same,CC50,[21],> 40 µM (active)
COc1ccc(/C=c2\s/c(=C\C(=O)C(C)(C)C)[nH]c2=O)cc1O,AC50,[22],4.65 µM (active)
same,EC50,[23],41.8 µM (active)
